Usually melting point stands for the temperature of the solid-liquid transition. Regarding `COC(=O)c1c(C)[nH]c(=S)n1Nc1cccc(Cl)c1`, the melting point lay in the range of 194 to 196 °C. Next, `O=C(Nc1ccc(S(=O)(=O)C(F)(F)F)cc1Cl)c1cc(-c2ccc(F)cc2F)cc(C23CC4CC(CC(C4)C2)C3)c1O`: 177 to 178 °C. `c1ccc(Cn2ccnc2CC2COc3ccccc3O2)cc1` (configuration not stated) gave a melting point of 105 to 107 °C. In turn, `Cc1ccc2oc(=O)n(-c3ccnc(N)c3)c2c1` registered a melting point of 173 to 174 °C. Next, `CC(=O)N1CCc2c(sc(C)c2CCBr)C1`: 93 to 95 °C; `CC(C)(C)OC(=O)CN(Cc1cccc(Cl)c1)S(=O)(=O)c1ccc2c(Cl)cnc(Cl)c2c1`: 141 to 143 °C; `Cn1cc(C2=C(c3csc4ccccc34)C(=O)NC2=O)c2ccccc21`: 238 to 241 °C.

Compound `N#Cc1ccc(-c2cc3ccccc3[nH]c2=S)cc1` gave a melting point of 284 to 289 °C. Under `CC(C)c1ccc(OC(Cc2ccc(OCCNC(=O)c3ccc(-c4ccc(N(C)C)cn4)cc3)cc2)C(=O)O)cc1` (configuration not stated) stands 150 to 151 °C; under `CC(=O)NCCCCCNc1ccc(NCCN(C)C)c2c1C(=O)c1ccccc1C2=O`, 138 to 139 °C. Next, `CC=CC=CCOC(=O)C1=C(C)NC(C)=C(C(=O)OC)C1c1cccc(C(F)(F)F)c1` (configuration not stated): 130 to 131 °C; `CC(=O)NC1CCN(Cc2ccccc2)C1` (configuration not stated): 83 to 85 °C. Under `Cc1c(-c2cc(CN(C)C)ccc2F)sc2nc(N)[nH]c(=O)c12` stands 230 to 250 °C; under `Cc1nn(C(C)C)cc1C(=O)NC(C#N)c1cccs1` (configuration not stated), 140 to 142 °C. Consider `CCCC(=O)NC(C#N)C(=O)OCC` (configuration not stated), for which the melting point worked out at 110 °C. Next, `C#CCOc1cc(Cl)nc(Nc2ccccc2)n1`: 92 to 93 °C; `Nc1nnc(SCCCCc2ccccc2)s1`: 111 °C. Under `COC(=O)COc1ccc(C(=O)CC2CCN(c3ccncc3)CC2)cc1` stands 137 to 138 °C. Next, `CNC(=O)c1ccc(-c2ccc(OC)c(-c3cccc([N+](=O)[O-])c3)c2)cc1`: 171 to 172 °C; `Cc1ccc(C2c3c(C)cc(C)c(C)c3OC2(C)C)cc1` (configuration not stated): 117 to 118 °C. In turn, `c1ccc(N2CCN(Cc3nc4ccccc4[nH]3)CC2)nc1` came in with a melting point of 220 to 221 °C. Next, `CC(=O)OC1CSC(Oc2cnc(-c3ccccc3)c(F)c2)C(OC(C)=O)C1OC(C)=O` (configuration not stated): 160 to 162 °C; `COc1ccc2nc(COc3ccc(CC4SC(=O)N(C(c5ccccc5)(c5ccccc5)c5ccccc5)C4=O)cc3)n(C)c2n1` (configuration not stated): 80 to 85 °C; `O=C(Nc1cccc(S(=O)(=O)N2CCCC2CO)c1)c1cnn2c(C(F)(F)F)cc(-c3ccc(Cl)cc3)nc12` (configuration not stated): 227 to 229 °C. Next, `COc1ccc(CNc2ncnc3c2ncn3C2OC(CNC(C)=O)C(O)C2O)cc1` (configuration not stated): 121 to 122 °C; `CC(=O)N(C)Cc1ccc(NC(=O)/C=C/c2cnn(C)c2-c2ccc(F)cc2)cc1`: 192 to 193 °C. Under `CC(C)(C)OC(=O)NCCC(=O)N[C@@H](CC(=O)OCc1ccccc1)C(=O)NCCc1ccc(OCC(=O)OCc2ccccc2)cc1` stands 123 to 124 °C; under `CCOC(=O)C1=C(C)NC(C=NOC)=C(C(=O)OCC)C1c1ccccc1Cl` (configuration not stated), 110 to 112 °C; under `CCOC(=NC(=O)c1ccc(F)cc1)N1Cc2ccccc2-c2ccccc2C1`, 109 to 110 °C. Compound `CC(=O)Nc1ccc(-c2nc(=O)c3ccccc3s2)cc1` showed a melting point of 231 to 232 °C. Next, `OC1(Cc2ccccc2)CCN(CCC#Cc2ccccc2)CC1`: 80 to 82 °C.

In turn, `N#Cc1ccc(CC[C@H]2CC[C@H](CO)CC2)cc1` displayed a melting point of 119 to 121 °C. Next, `CC(C)OC(=O)c1cc(F)c(F)c(-c2ccc(Cl)cc2)n1`: 73 to 74 °C. Next, `CCN(CC)C(=O)n1cnc(S(=O)(=O)c2ccccc2OCC(F)(F)F)n1`: 134 to 135 °C. Under `CS(=O)(=O)c1ccc(-c2cc(CCCO[N+](=O)[O-])nn2C2CCCCC2)cc1` stands 77 °C; under `C=CC1(C(=O)c2ccc(Cl)cc2)C=CC=CC1Cl` (configuration not stated), 120 to 122 °C; under `COc1ccc(CNC(=O)C23CC4CC(CC(C4)C2)C3)cc1`, 91 to 94 °C. For the compound `O=C(Nc1ccc(Oc2ccnc(-n3ccnc3)n2)c2ccccc12)c1cc(F)cc(N2CCOCC2)c1`, the melting point fell in the range of 153 to 154 °C. Under `CC1CCCN1c1nccc(Oc2ccc(NC(=O)c3cc(F)cc(N4CCCCC4)c3)c3ccccc23)n1` (configuration not stated) stands 93 to 94 °C; under `COc1c(C)cc(-c2cc(-c3ccc(S(C)(=O)=O)cc3)c(N3CCOCC3)s2)nc1C`, 152 °C; under `OC(CCCCCCCCCCOCc1ccccc1)c1ccc(OCc2ccccc2)c(OCc2ccccc2)c1` (configuration not stated), 50 to 52 °C. `C=C(C)COc1ccc2c(=O)c(C)c(-c3ccccc3)oc2c1C(=O)C=Cc1cccc(OC)c1` yielded a melting point of 131 to 134 °C. Under `CCCCCCCCCCOc1cc(OCCCCCCc2cccc(OCc3ccccc3)c2OCc2ccccc2)cc(C(=O)OC)c1` stands 45 to 46 °C. Under `COc1cc(C)nc(NC(N)=S)n1` stands 220 °C; under `O=C(O)c1cccc2c1CCc1cc(O)ccc1S2`, 210 to 211 °C. Under `CC(C)/C=C(\C[C@H](N)C(=O)O)C(=O)O` stands over 200 °C; under `CCOC(=O)c1cn(Cc2ccccc2)c2cc(C(C)C)nn2c1=O`, 135 to 140 °C. Take `CCCCCCCCCCCCCCCCCCC(N)C(N)=O` (configuration not stated): the melting point fell in the range of 103 to 104 °C. Under `CCOC(=O)c1cc(Br)c(C(=O)OCC)cc1Cl` stands 125 °C; under `CCNc1c(C)c(C)c2c(c1C)CC(C)(CN1CCC(c3ccccc3)CC1)O2` (configuration not stated), 84 to 86 °C; under `CCCNc1nc(N)cc(Cl)n1`, 92 to 94 °C. Under `COC(=O)/C=C1\CCCCC1n1nc(-c2c(-c3ccccc3)nn3ccccc23)ccc1=O` (configuration not stated) stands 156 to 157 °C; under `O=C1C(Cl)=C(c2ccccc2)C(=O)N1Nc1ccccc1`, 144 to 146 °C.

In turn, `CCCOc1ccccc1-c1ncc(C(=O)O)c(=O)[nH]1` registered a melting point of 203 to 206 °C. Next, `CC(=O)c1ccc(OCCCOc2cc(NC(=O)C(=O)O)c(C)cc2Br)c(CCC(F)(F)F)c1O`: 133 to 135 °C; `Cc1nc2c(O)c(CC[C@@H](O)c3ccc(F)cc3)c(C(=O)N(C)C)cc2n1C`: 276 to 277 °C. The compound `COc1ccc(NCCCOc2ccc3ccccc3c2)cc1` yielded a melting point of 110 °C.

For `O=C(OCc1ccccc1)N1CCN(CCN2C(=O)c3ccccc3C2=O)CC1`, the melting point is 89.5 to 90.5 °C. Under `CSc1ccc(C=C2CCc3cc(OCCn4ccnc4)ccc3C2=O)cc1` stands 161 to 162 °C.

`N#CC(C#N)=C1N(CCN2CCCCC2)c2ccccc2N1CCN1CCCCC1`: the melting point was in the range of 127 to 128 °C. Next, `CCCc1nc2c(N)nc3ccccc3c2n1CCCC(=O)OCC`: 154 to 156 °C; `COC(=O)c1ccc(-c2nnc(CSCCOc3ccc(Cl)cc3Cl)o2)cc1`: 148 to 152 °C.

The values are drawn from a melting point compilation (Tetko et al.; mined from patent text by program, amines drawn as free bases though some values may be those of a salt).
